Measured values as given in patent publication US5641779A, “Selective ligands of 5-HT1D -5-HT1B receptors derived from indolepiperazine which are useful medicaments” (Pierre Fabre Medicament, priority 1992, dated 1997).
Structures can show the parent of a compound that is named as a salt. Where two headings read alike, the source gives them in different places.

Columns and labels:
α2-Adrenergic receptor = biological target: T1, α2-Adrenergic receptor (Rattus norvegicus, UniProt P22909); assay: α2-Adrenergic receptor binding (Mallard et al.); conditions: rat brain (title of cited method); read-out: IC50 α2
T1 construct: in the rat brain; from tissue; host or cells: rat brain
T1 sequence (P22909 1-465): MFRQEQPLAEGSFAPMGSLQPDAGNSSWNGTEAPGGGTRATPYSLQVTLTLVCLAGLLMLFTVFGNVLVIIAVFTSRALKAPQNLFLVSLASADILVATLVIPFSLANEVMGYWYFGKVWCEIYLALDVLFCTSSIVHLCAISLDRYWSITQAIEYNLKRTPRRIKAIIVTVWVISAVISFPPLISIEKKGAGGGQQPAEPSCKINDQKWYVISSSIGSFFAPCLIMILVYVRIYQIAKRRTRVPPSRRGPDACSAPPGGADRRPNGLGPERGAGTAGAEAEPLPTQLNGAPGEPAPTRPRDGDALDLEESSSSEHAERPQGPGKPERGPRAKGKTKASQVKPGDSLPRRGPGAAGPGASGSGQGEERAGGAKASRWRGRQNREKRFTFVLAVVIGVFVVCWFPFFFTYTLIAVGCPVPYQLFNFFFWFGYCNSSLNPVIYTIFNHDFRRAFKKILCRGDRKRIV
Procedure: (§1) The IC50 values of the various products which form part of this invention for the other receptors were measured according to the techniques described in the following references:
Mallard N. J., Tyacke R., Hudson A. L. and Nutt D. S. Comparative binding studies of ^3 -idazoxan and ^3 -RX821002 in the rat brain. Brit. J. Pharmacol. 102, 221P, 1991.

5-HT1A = biological target: T2, 5-HT1A (Rattus norvegicus, UniProt P19327); assay: 5-HT1A receptor binding (Peroutka)
T2 construct: from tissue; host or cells: rat frontal cortex
T2 sequence (P19327 1-422): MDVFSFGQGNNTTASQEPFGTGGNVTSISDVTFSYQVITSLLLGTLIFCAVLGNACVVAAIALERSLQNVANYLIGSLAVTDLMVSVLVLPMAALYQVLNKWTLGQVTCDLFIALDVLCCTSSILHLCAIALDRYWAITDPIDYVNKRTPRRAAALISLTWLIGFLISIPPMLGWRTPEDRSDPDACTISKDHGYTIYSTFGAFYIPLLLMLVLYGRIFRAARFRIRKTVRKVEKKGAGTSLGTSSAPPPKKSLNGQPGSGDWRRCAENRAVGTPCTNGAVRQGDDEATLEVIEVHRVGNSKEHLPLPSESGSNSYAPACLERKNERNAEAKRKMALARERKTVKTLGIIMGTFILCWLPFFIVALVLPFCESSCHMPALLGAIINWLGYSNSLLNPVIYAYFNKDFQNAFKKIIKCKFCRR
Procedure: as §1
(§2) Peroutka S. J. Pharmacological differentiation and characterization of 5-HT1A, 5-HT1B and 5-HT1C binding sites in rat frontal cortex. J. Neurochem., 45, 529-540, 1986.

D2-Dopaminergic receptor = biological target: T3, D2-Dopaminergic receptor (Canis lupus familiaris, UniProt Q9GJU1); assay: D2-Dopaminergic receptor binding (Nisnik et al.); conditions: 3H-YM-09159-2 (title of cited method); read-out: IC50 D2
T3 construct: from tissue
Procedure: as §1
Nisnik H. B., Grigoriadis D. E., Pri-Bar I., Buckman O. and Seeman P. Dopamine D2 receptors selectively labeled by a benzamide neuroleptic: ^3 H-YM-09159-2 Naunyn-Schmiedeberg's Arch. Pharmacol. 329, 333-343, 1985.

5-HT1D = assay: Affinity for 5-HT1D receptors (3H-5-HT binding, sheep caudate nuclei membranes); conditions: Ratio of the IC50 values for the 5HT1A and 5HT1D receptors
Procedure: This study is carried out according to the technique described by Herrick-Davis and Titeler (J. Neurochem. 50, 1624-1631, 1988).
Preparation of the membranes:
Sheep brains are removed at the local abattoir and transported in ice. The caudate nuclei are removed, weighed and homogenized with a Polytron for 20 sec. (speed 6-7) in 20 volumes of Tris-HCl 50 mM, pH 7.7. The homogenate is centrifuged for 10 min at 48,000 g with an L5 50E centrifuge (Beckman).
The pellet, taken up in 20 volumes of Tris-HCl 50 mM, pH 7.7, is placed in a water bath at 37° C. for 10 min and then recentrifuged for 10 min at 48,000 g. The pellet then obtained is immediately frozen in fractions containing 0.5 g of tissue.
The pellet is defrosted and homogenized with a Dounce in 80 volumes of Tris-HCl, 50 mM pH 7.7 containing 4 mM CaCl2, 10μM of pargyline and 0.1% of ascorbic acid.
Binding is carried out at 25° C. by incubating for 30 min:
0.1 ml of buffer or 10 μM, as final concentration, of sumatriptan, in order to obtain the non-specific binding, or the product which forms part of this invention at various concentrations (between 10^-10 and 10^-6 M).
0.8 ml of membrane suspension
0.1 ml of ^3 H-5-HT (15 to 30 Ci/mM, New England Nuclear France)
The incubation is brought to an end by rapid filtration through GF/B filters and rinsing with 3 times 3 ml of ice-cold buffer, using a harvester manufactured by Brandel which makes it possible to filter 48 samples. The filters are introduced into vials containing 4 ml of emulsifier-safe liquid scintillant (Packard) and the radioactivity measured with a Tri-carb 4640 counter (Packard).
The IC50 (concentration which inhibits the specific affinity by 50%) is determined graphically.

α1-Adrenergic receptor = α1-Adrenergic receptor binding (Leslie Morrow and Creese); conditions: rat brain (title of cited method)
Procedure: as §1
Leslie Morrow A. and Creese I. Characterization of α1-adrenergic receptor subtypes in rat brain: a reevaluation of ^3 H-WB4101 and ^3 H prazosin binding. Mol. Pharmacol. 29, 321-330, 1986.

5-HT1C = biological target: T4, 5-HT1C (Sus scrofa, UniProt K7GSR7); assay: 5-HT1C receptor binding (Pazos et al.); parameters: species or system porcine
T4 construct: serotonergic ligands to the porcine choroid plexus; from tissue; host or cells: porcine choroid plexus
T4 sequence (K7GSR7 1-457): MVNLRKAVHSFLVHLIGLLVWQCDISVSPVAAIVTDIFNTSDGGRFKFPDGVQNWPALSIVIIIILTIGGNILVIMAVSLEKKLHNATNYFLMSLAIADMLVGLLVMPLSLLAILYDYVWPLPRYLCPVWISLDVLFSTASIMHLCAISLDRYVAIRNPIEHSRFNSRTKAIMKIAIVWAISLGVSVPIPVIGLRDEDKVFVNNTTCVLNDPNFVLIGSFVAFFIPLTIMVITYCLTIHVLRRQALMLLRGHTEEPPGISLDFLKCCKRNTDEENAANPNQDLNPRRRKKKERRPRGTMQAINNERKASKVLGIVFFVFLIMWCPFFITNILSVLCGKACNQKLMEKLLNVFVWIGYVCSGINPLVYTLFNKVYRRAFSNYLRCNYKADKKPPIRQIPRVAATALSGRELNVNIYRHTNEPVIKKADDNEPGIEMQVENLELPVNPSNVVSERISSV
Procedure: as §1
Pazos A., Hoyer D. and Palacios J. M. The binding sites of serotonergic ligands to the porcine choroid plexus: characterization of a new type of serotonin recognition site. Eur. J. Pharmacol., 106, 539-546, 1985.

5-HT2 = biological target: T5, 5-HT2 (Rattus norvegicus, UniProt P14842); assay: 5-HT2 receptor binding (Leysen et al.); conditions: 3H-ketanserine (title of cited method)
T5 construct: from tissue
Procedure: as §1
Leysen J. E., Niemegeers C. J. E., Van Nueten J. M. and Laduron P.M. ^3 H-ketanserine (R 41468), a selective ^3 H ligand for serotonin2 receptor binding sites. Mol. Pharmacol., 21, 301-330, 1982.

5-HT1B = biological target: T6, 5-HT1B (Rattus norvegicus, UniProt P28564); assay: 5-HT1B receptor binding (Peroutka)
T6 construct: from tissue; host or cells: rat frontal cortex
Procedure: as §1, §2

[1] = rat frontal cortex (title of cited method), mean, read-out: IC50 5-HT1A mean
[2] = porcine choroid plexus (title of cited method), read-out: IC50 5-HT1C
[3] = rat frontal cortex (title of cited method), mean, read-out: IC50 5-HT1B mean

T6 sequence (P28564 whole entry): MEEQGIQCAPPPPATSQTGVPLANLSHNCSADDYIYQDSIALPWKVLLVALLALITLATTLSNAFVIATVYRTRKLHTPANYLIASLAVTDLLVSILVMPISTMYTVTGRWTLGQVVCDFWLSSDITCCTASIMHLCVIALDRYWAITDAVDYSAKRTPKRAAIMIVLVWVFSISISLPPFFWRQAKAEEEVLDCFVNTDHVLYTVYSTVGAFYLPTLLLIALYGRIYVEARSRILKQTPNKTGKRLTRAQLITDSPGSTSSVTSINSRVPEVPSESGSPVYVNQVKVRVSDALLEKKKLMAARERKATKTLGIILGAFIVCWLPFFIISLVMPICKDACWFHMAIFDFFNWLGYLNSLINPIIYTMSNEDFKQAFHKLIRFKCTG
T3 sequence (Q9GJU1 whole entry): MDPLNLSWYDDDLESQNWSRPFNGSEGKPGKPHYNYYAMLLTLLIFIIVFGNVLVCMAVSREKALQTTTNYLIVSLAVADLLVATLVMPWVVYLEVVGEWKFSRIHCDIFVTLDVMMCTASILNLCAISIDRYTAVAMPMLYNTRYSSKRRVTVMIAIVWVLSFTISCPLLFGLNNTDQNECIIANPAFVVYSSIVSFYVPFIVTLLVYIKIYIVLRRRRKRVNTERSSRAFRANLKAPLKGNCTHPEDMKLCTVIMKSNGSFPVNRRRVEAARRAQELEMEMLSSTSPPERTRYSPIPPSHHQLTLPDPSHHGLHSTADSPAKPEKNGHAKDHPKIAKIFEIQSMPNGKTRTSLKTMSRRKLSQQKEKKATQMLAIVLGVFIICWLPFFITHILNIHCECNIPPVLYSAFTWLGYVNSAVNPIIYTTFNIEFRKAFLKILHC
T5 sequence (P14842 whole entry): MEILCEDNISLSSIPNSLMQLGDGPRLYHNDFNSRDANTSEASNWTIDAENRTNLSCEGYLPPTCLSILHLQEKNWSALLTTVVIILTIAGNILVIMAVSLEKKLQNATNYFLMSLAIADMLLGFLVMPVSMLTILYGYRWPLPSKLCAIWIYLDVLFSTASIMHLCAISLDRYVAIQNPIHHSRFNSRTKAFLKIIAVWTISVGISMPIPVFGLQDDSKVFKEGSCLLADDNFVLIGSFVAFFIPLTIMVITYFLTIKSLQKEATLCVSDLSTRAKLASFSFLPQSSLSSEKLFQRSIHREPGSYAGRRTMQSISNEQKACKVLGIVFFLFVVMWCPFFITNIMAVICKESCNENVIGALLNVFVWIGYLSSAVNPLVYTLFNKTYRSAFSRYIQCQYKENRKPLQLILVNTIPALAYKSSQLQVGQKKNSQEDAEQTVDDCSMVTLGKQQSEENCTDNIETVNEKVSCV

Compound	IC50 (α2-Adrenergic receptor) [µM]	IC50 (5-HT1A) [µM]	IC50 (D2-Dopaminergic receptor) [µM]	Ratio 1A/1D (5-HT1D)	IC50 (α1-Adrenergic receptor) [µM]	IC50 (5-HT1C) [µM]	IC50 (5-HT2) [µM]	IC50 (5-HT1B) [µM]	IC50 (5-HT1A; [1]) [µM]	IC50 (5-HT1C; [2]) [µM]	IC50 (5-HT1B; [3]) [µM]
Cc1ccccc1N1CCN(C(=O)COc2ccc3[nH]cc(CCN)c3c2)CC1 [Example 1, 4-o-Tolyl-1-.(tryptamine-5-O-carboxymethyl)-piperazide hydrochloride]	> 1	0.0235	> 1	11.2	> 1	3	> 1	0.0006	–	–	–
NCCc1c[nH]c2ccc(OCC(=O)N3CCN(c4cccc5ccccc45)CC3)cc12 [Example 4, 4-(Naphth-1-yl)-1-(tryptamine-5-O-carboxymethyl) piperazide hydrochloride]	> 1	–	> 1	35.9	> 1	1.8	> 1	0.0019	0.115	–	–
Cc1ccccc1N1CCN(C(=O)COc2ccc3[nH]cc(CCNC(=O)OC(C)(C)C)c3c2)CC1 [ID, 4-o-Tolyl-1-(tert-butoxycarbamate-tryptamine-5-O-carboxymethyl) piperazide hydrochloride]	7	–	> 0.1	18.5	8.5	–	2	–	0.12	–	–
Cc1ccccc1N1CCN(C(=O)C(Oc2ccc3[nH]cc(CCN)c3c2)c2ccccc2)CC1 (stereo not drawn) [Example 9, 4-O-Tolyl-1-[tryptamine-5-O-(α-phenylcarboxymethyl)]piperazide hydrochloride]	> 1	–	> 1	1.7	> 1	–	0.55	–	0.325	0.6	0.085
NCCc1c[nH]c2ccc(OC(C(=O)N3CCN(c4cccc5ccccc45)CC3)c3ccccc3)cc12 (stereo not drawn) [Example 10, 4-Naphthyl-1-[tryptamine-5-O-(α-phenylcarboxymethyl)]piperazide hydrochloride]	> 1	–	> 1	0.7	> 1	–	> 1	–	0.465	> 1	0.335
Cc1cccc(N2CCN(C(=O)COc3ccc4[nH]cc(CCN)c4c3)CC2)c1C [Example 5, 4-(2,3-Xylyl)-1-(tryptamine-5-O-carboxymethyl) piperazide hydrochloride]	> 1	–	> 1	8.2	> 1	> 1	> 1	0.006	0.24	–	–
NCCc1c[nH]c2ccc(OCC(=O)N3CCN(c4cccc(C(F)(F)F)c4)CC3)cc12 [Example 3, 4-(a,a,a-Trifluoro-m-tolyl)-1-(tryptamine-5-O-carboxymethyl) piperazide hydrochloride]	> 1	0.0335	> 1	4.8	> 1	4	> 1	0.0019	–	–	–
Cc1cccc(N2CCN(C(=O)COc3ccc4[nH]cc(CCNC(=O)OC(C)(C)C)c4c3)CC2)c1C [Example 5A, 4-(2,3 -Xylyl)-1-(tert-butoxycarbamate-tryptamine-5-O-carboxymethyl)piperazide hydrochloride]	> 1	–	> 1	17.3	> 1	–	> 1	–	0.0345	1	0.001
COc1cccc(N2CCN(C(=O)COc3ccc4[nH]cc(CCNC(=O)OC(C)(C)C)c4c3)CC2)c1 [Example 6A, 4-(m-Methoxyphenyl)-1-(tert-butoxycarbamate-tryptamine-5-carboxymethyl)piperazide hydrochloride]	> 1	–	> 1	6.3	> 1	–	> 1	–	0.1	> 1	0.0015
Cc1ccccc1N1CCN(C(=O)C(C)Oc2ccc3[nH]cc(CCN)c3c2)CC1 (stereo not drawn) [Example 11, 4-o-Tolyl-1-[tryptamine-5-O-(α-methylcarboxymethyl)]piperazide hydrochloride]	–	–	–	20.8	–	1	> 1	0.0055	0.125	–	–
CSc1ccc2c(c1)C(N1CCN(C(=O)COc3ccc4[nH]cc(CCNC(=O)OC(C)(C)C)c4c3)CC1)Cc1ccccc1S2 (stereo not shown) [Example 8, 1-[(tert-Butoxycarbamate)tryptamine-5-O-carboxymethyl]-4-[10-(8-methylthio-10-11-dihydrodibenzo[b, f]thiepine)]piperazide hydrochloride]	–	–	–	–	–	–	–	–	> 1	–	1
CN1CCN(C(=O)COc2ccc3[nH]cc(CCN)c3c2)CC1 [Example 7, 4-Methyl-1-(tryptamine-5-O-carboxymethyl)piperazide hydrochloride]	> 1	–	> 1	> 1.4	> 1	> 1	> 1	–	> 1	–	0.355
